Laboratory results reported in PMC7937321 (Genes and Environment, 2021).
Like-named read-outs stand apart in the source and are kept apart here.

What was measured:
[1] = test system: human lymphoblastoid TK6 cells, thymidine kinase gene
rodent [2] = conditions: cited from earlier work; for Carcinogenicity Studies: rodent, ref [20]-[41], Table 2
[3] = test system: TA1538, TA100, TA98, TA97, TA1535; conditions: cited from earlier work; for Bacterial reverse mutation assay, With S9 / Bacterial reverse mutation assay, Without S9: ref [18]-[40], Table 2
rodent [4] = conditions: chromosomal Aberration test, micronucleus test, transgenic rodent gene mutation assay; ref [48], [58]–[63]; cited from earlier work
[5] = test system: L5178Y mouse lymphoma cells; conditions: ref [27], cited from earlier work; for MLA (TK gene locus), With S9 / MLA (TK gene locus), Without S9: [46]-[53], Table 3
[6] = test system: human lymphoblastoid TK6 cells, thymidine kinase gene; test: TK gene mutation assay (TK6 assay, OECD TG490)
TK6 cells = test: Cytotoxicity in the TK6 assay (CE, RS, RSG, RTG); conditions: for CE0 / RS0 / Adjusted CE0 / Adjusted CE0(%) / CE0 (%) / RS0 (%): Day 0
[7] = Long-term treatment without metabolic activation
[8] = Short treatment, -S9 mix, 24.10 μg/mL
[9] = Short treatment, -S9 mix, 48.10 μg/mL
[10] = Short treatment, -S9 mix, 96.30 μg/mL
[11] = Short-term treatment with metabolic activation
[12] = Short-term treatment without metabolic activation
[13] = dose 6.02 μg/mL, 24h treatment, -S9 mix
[14] = dose 24.10 μg/mL, 24h treatment, -S9 mix
[15] = dose 24.1 μg/mL, short treatment, +S9 mix
[16] = dose 48.1 μg/mL, 24h treatment, -S9 mix
[17] = dose 48.1 μg/mL, short treatment, +S9 mix
[18] = dose 96 μg/mL, short treatment, +S9 mix
[19] = dose 96.3 μg/mL, 24h treatment, -S9 mix
[20] = Short treatment, +S9 mix, 24.1 μg/mL
[21] = Short treatment, +S9 mix, 48.1 μg/mL
[22] = Short treatment, +S9 mix, 96 μg/mL
[23] = Short treatment, +S9 mix, 770 μg/mL

## CC(=O)Nc1ccc(C(=O)CCl)cc1 [4-(Chloroacetyl)-acetanilide, 4-(Chloroacetyl)acetanilide]
[1]
  TK6 assay overall judgment: positive
  TK mutation assay, Long term: Pos
  TK mutation assay, With S9: Neg
  TK mutation assay, Without S9: Pos
  linear trend test of MF: no statistically significant linear trends
Rodent [2]
  Carcinogenicity Studies: Neg
[3]; TA1538 with S9, ref [18], [19]
  The Highest Specific Activity and the Strain: 600 revertants/mg in TA1538 with S9
[3]
  Bacterial reverse mutation assay, With S9: Pos
  Bacterial reverse mutation assay, Without S9: Neg
Rodent [4]
  in vivo genotoxicity tests: negative

## Nc1ccc([N+](=O)[O-])cc1N [4-Nitro-o-phenylenediamine]
Rodent [2]
  Carcinogenicity Studies: Neg
[5]
  MLA (TK gene locus), With S9: Pos
  MLA (TK gene locus), Without S9: Pos
[3]; TA100 without S9, ref Table 2
  The Highest Specific Activity and the Strain: 41,400 revertants/mg in TA100 without S9
[3]; ref Table 2
  specific activity values obtained from Ames test: exceeding 10,000 revertants per milligram
[3]
  Bacterial reverse mutation assay, With S9: Pos
  Bacterial reverse mutation assay, Without S9: Pos
[6]; 4h treatment (-S9)
  TK6 assay result (mutant frequency increase, judgment): increased significantly
[6]; 24 h, without S9
  TK mutation assay, Long term: Pos
[6]; 24h treatment (-S9)
  TK6 assay result (mutant frequency increase, judgment): increased significantly
[6]; [7]
  Dunnett type test, test statistic: 3.866
  Trend test, test statistic: 2.800
[6]; [8]
  %SG: 54.1%
  MF: 14.5
[6]; [9]
  %SG: 55.8%
  MF: 17.4
  Mut. freq. N-MF: 7.7 ×10-6
  Mut. freq. S-MF: 9.7 ×10-6
  Mut. freq. T-MF: 17.4 ×10-6
[6]; [10]
  %SG: 62.6%
  MF: 16.9
  Mut. freq. N-MF: 6.3 ×10-6
  Mut. freq. S-MF: 10.6 ×10-6
  Mut. freq. T-MF: 16.9 ×10-6
[6]; [11]
  Dunnett type test, test statistic: 3.458
  Trend test, test statistic: 1.593
[6]; [12]
  Dunnett type test, test statistic: 2.435
  Trend test, test statistic: 2.615
[6]; all treatments
  TK6 assay overall judgment: positive
[6]; [13]
  %SG: 39.7%
  Mut. freq. (×10-6) N-MF: 11.7 ×10-6
  Mut. freq. (×10-6) S-MF: 7.7 ×10-6
  Mut. freq. (×10-6) T-MF: 19.4 ×10-6
[6]; [14]
  %SG: 59.9%
[6]; [15]
  %SG: 62.7%
[6]; [16]
  %SG: 78.5%
  Mut. freq. (×10-6) N-MF: 3.0 ×10-6
  Mut. freq. (×10-6) S-MF: 11.1 ×10-6
  Mut. freq. (×10-6) T-MF: 14.2 ×10-6
[6]; [17]
  %SG: 65.0%
  Mut. freq. (×10-6) N-MF: 7.5 ×10-6
  Mut. freq. (×10-6) S-MF: 14.0 ×10-6
  Mut. freq. (×10-6) T-MF: 21.6 ×10-6
[6]; [18]
  %SG: 70.4%
  Mut. freq. (×10-6) N-MF: 5.2 ×10-6
  Mut. freq. (×10-6) S-MF: 12.4 ×10-6
  Mut. freq. (×10-6) T-MF: 17.6 ×10-6
[6]; [19]
  %SG: 76.1%
  Mut. freq. (×10-6) N-MF: 5.6 ×10-6
  Mut. freq. (×10-6) S-MF: 17.9 ×10-6
  Mut. freq. (×10-6) T-MF: 23.5 ×10-6
[6]; short-term 4 h, with rat liver S9
  TK mutation assay, With S9: Neg
[6]; short-term 4 h, without S9
  TK mutation assay, Without S9: Pos
TK6 cells; [20]
  CE0: 81.6%
  RS0: 97.0%
TK6 cells; Short treatment, +S9 mix, 24.1 μg/mL, Day 3
  CE3: 92.1%
TK6 cells; [21]
  Daily cell growth Day 1×2×3: 13.43
  RSG: 0.703
  Adjusted CE0: 81.2%
  CE0: 84.1%
  RS0: 101.5%
TK6 cells; Short treatment, +S9 mix, 48.1 μg/mL, Day 3
  CE3: 84.1%
TK6 cells; [22]
  Daily cell growth Day 1×2×3: 13.64
  RSG: 0.714
  Adjusted CE0: 62.7%
  CE0: 66.7%
  RS0: 78.3%
TK6 cells; Short treatment, +S9 mix, 96 μg/mL, Day 3
  CE3: 72.7%
TK6 cells; [23]
  Daily cell growth Day 1×2×3: 1.65
  RSG: 0.086
  Adjusted CE0: 29.1%
  CE0: 42.0%
  RS0: 36.3%
TK6 cells; [8]
  CE3: 1.160
  RS: 79.4
  CE0: 74.8%
  RS0: 79.4%
TK6 cells; Short treatment, -S9 mix, 24.10 μg/mL, Day 3
  CE3: 116.0%
TK6 cells; [9]
  CE3: 0.866
  Daily cell growth Day 1×2×3: 13.83
  RS: 65.5
  RSG: 0.667
  Adjusted CE0: 56.8%
  CE0: 61.3%
  RS0: 65.5%
TK6 cells; Short treatment, -S9 mix, 48.10 μg/mL, Day 3
  CE3: 86.6%
TK6 cells; [10]
  CE3: 0.950
  Daily cell growth Day 1×2×3: 13.07
  RS: 64.6
  RSG: 0.630
  Adjusted CE0: 56.1%
  CE0: 63.1%
  RS0: 64.6%
TK6 cells; Short treatment, -S9 mix, 96.30 μg/mL, Day 3
  CE3: 95.0%
TK6 cells; [13]
  CE3: 0.866
  Daily cell growth Day 1×2×3: 17.46
  RSG: 0.993
  Adjusted CE0(%): 178.3%
  CE0 (%): 81.6%
  RS0 (%): 79.6%
TK6 cells; dose 6.02 μg/mL, 24h treatment, -S9 mix, Day 3
  CE3 (%): 86.6%
TK6 cells; [14]
  CE3: 1.012
  CE0 (%): 95.0%
  RS0 (%): 73.2%
TK6 cells; dose 24.10 μg/mL, 24h treatment, -S9 mix, Day 3
  CE3 (%): 101.2%
TK6 cells; [15]
  CE3: 0.921
  RS: 97.0
TK6 cells; [16]
  CE3: 0.950
  Daily cell growth Day 1×2×3: 11.59
  RSG: 0.659
  Adjusted CE0(%): 99.3%
  CE0 (%): 74.8%
  RS0 (%): 44.3%
TK6 cells; dose 48.1 μg/mL, 24h treatment, -S9 mix, Day 3
  CE3 (%): 95.0%
TK6 cells; [17]
  CE3: 0.841
  RS: 101.5
TK6 cells; [18]
  CE3: 0.727
  RS: 78.3
TK6 cells; [19]
  CE3: 0.866
  Daily cell growth Day 1×2×3: 9.04
  RSG: 0.514
  Adjusted CE0(%): 55.5%
  CE0 (%): 59.6%
  RS0 (%): 24.8%
TK6 cells; dose 96.3 μg/mL, 24h treatment, -S9 mix, Day 3
  CE3 (%): 86.6%
TK6 cells; dose 770 μg/mL, short treatment, +S9 mix
  RS: 36.3

## O=[N+]([O-])c1cc(N(CCO)CCO)ccc1NCCO [HC Blue No.2]
[1]
  TK mutation assay, Long term: Pos
  TK mutation assay, With S9: Neg
  TK mutation assay, Without S9: Neg
  Trend test, test statistic: 2.719
Rodent [2]; ref [84]
  carcinogenicity classification: non-carcinogenic
Rodent [2]
  Carcinogenicity Studies: Neg
[5]; presence of S9, [29], [68]
  MLA (4 h): positive
[5]; substance with high purity, −S9
  MLA (−S9): positive
[5]
  MLA (TK gene locus), With S9: Pos
  MLA (TK gene locus), Without S9: Pos
[3]; TA98 with S9, ref Table 2
  The Highest Specific Activity and the Strain: 153.6 revertants/mg in TA98 with S9
[3]
  Bacterial reverse mutation assay, With S9: Pos
  Bacterial reverse mutation assay, Without S9: Pos
